# Test results reported in patent US4291164A, “Cephalosporin analogs and methods for production thereof” (Kyowa Hakko Kogyo Co., Ltd., priority 1978, dated 1981).
# Key:
# [1] = J. Am. Chem. Soc. 96, 7584 (1974); J. Med. Chem. 20, 551; cited from earlier work
# [2] = system: Vibrio percolans KY4174; assay: Antibacterial activity, regular agar dilution, Vibrio percolans KY4174; format: cell-based; conditions: Comamonas terrigena, pH 7.0
# Procedure: (§1) The antibacterial activity of (±)-cis-2-carboxy-7-[2-(thiophene-2-yl)acetylamino]-1-azabicyclo[4,2,0]oct-2-en-8-one obtained in Example 21 above is set forth below. The activity is determined by the regular agar dilution at pH 7.0.
# [3] = system: Shigella sonnei KY4281; assay: Antibacterial activity, regular agar dilution, Shigella sonnei KY4281; format: cell-based; conditions: pH 7.0
# Procedure: as §1
# [4] = system: Escherichia coli KY4271; assay: Antibacterial activity, regular agar dilution, Escherichia coli KY4271; format: cell-based; conditions: pH 7.0
# Procedure: as §1
# [5] = system: Klebsiella penumoniae KY4275; assay: Antibacterial activity, regular agar dilution, Klebsiella penumoniae KY4275; format: cell-based; conditions: pH 7.0
# Procedure: as §1
# [6] = system: Staphylococcus aureus KY4279; assay: Antibacterial activity, regular agar dilution, Staphylococcus aureus KY4279; format: cell-based; conditions: pH 7.0
# Procedure: as §1
# [7] = system: Bacillus subtilis KY4273; assay: Antibacterial activity, regular agar dilution, Bacillus subtilis KY4273; format: cell-based; conditions: pH 7.0
# Procedure: as §1
# [8] = system: Erwinia aroides KY3241; assay: Antibacterial activity, regular agar dilution, Erwinia aroides KY3241; format: cell-based; conditions: pH 7.0
# Procedure: as §1
# [9] = system: Proteus vulgaris KY4277; assay: Antibacterial activity, regular agar dilution, Proteus vulgaris KY4277; format: cell-based; conditions: pH 7.0
# Procedure: as §1
# [10] = system: Salmonella typhosa KY4278; assay: Antibacterial activity, regular agar dilution, Salmonella typhosa KY4278; format: cell-based; conditions: Salmonella enterica, pH 7
# Procedure: as §1
# [11] = system: Escherichia coli Juhl; assay: Antibacterial activity, Heart Infusion Agar Dilution Method, Escherichia coli Juhl; format: cell-based; conditions: Escherichia coli Juhl; Heart Infusion Agar Dilution, pH 7.2; read-out: Minimum Inhibitory Concentration
# [12] = system: Staphylococcus aureus 209p; assay: Antibacterial activity, Heart Infusion Agar Dilution Method, Staphylococcus aureus 209p; format: cell-based; conditions: pH 7.2, read-out: Minimum Inhibitory Concentration
# Procedure: (§2) The antibacterial activity of the compounds obtained in the above Examples 24, 26, 28, 30, 32, 34, 36, 38, 40 and 41 are determined by Heart Infusion Agar Dilution Method (pH 7.2). Cefazolin is used as a reference.
# [13] = system: Staphylococcus epidermidis; assay: Antibacterial activity, Heart Infusion Agar Dilution Method, Staphylococcus epidermidis; format: cell-based; conditions: pH 7.2, read-out: Minimum Inhibitory Concentration
# Procedure: as §2
# [14] = system: Proteus mirabilis 1287; assay: Antibacterial activity, Heart Infusion Agar Dilution Method, Proteus mirabilis 1287; format: cell-based; conditions: pH 7.2, read-out: Minimum Inhibitory Concentration
# Procedure: as §2
# [15] = system: Proteus vulgaris 6897; assay: Antibacterial activity, Heart Infusion Agar Dilution Method, Proteus vulgaris 6897; format: cell-based; conditions: pH 7.2, read-out: Minimum Inhibitory Concentration
# Procedure: as §2
# [16] = system: Proteus morganii KY4298; assay: Antibacterial activity, Heart Infusion Agar Dilution Method, Proteus morganii KY4298; format: cell-based; conditions: Morganella morganii, pH 7.2, read-out: Minimum Inhibitory Concentration
# Procedure: as §2
# [17] = system: Klebsiella pneumoniae Y60; assay: Antibacterial activity, Heart Infusion Agar Dilution Method, Klebsiella pneumoniae Y60; format: cell-based; conditions: pH 7.2, read-out: Minimum Inhibitory Concentration
# [18] = system: Escherichia coli NIHJC2; assay: Antibacterial activity, Heart Infusion Agar Dilution Method, Escherichia coli NIHJC2; format: cell-based; conditions: Escherichia coli NIHJC2; Heart Infusion Agar Dilution, pH 7.2; read-out: Minimum Inhibitory Concentration
# Procedure: as §2
# [19] = system: Proteus rettgeri KY4289; assay: Antibacterial activity, Heart Infusion Agar Dilution Method, Proteus rettgeri KY4289; format: cell-based; conditions: Providencia rettgeri, pH 7.2, read-out: Minimum Inhibitory Concentration
# Procedure: as §2
# [20] = system: Pseudomonas putida F264; assay: Antibacterial activity, Heart Infusion Agar Dilution Method, Pseudomonas putida F264; format: cell-based; conditions: pH 7.2, read-out: Minimum Inhibitory Concentration
# [21] = system: Serratia marcescens T55; assay: Antibacterial activity, Heart Infusion Agar Dilution Method, Serratia marcescens T55; format: cell-based; conditions: pH 7.2, read-out: Minimum Inhibitory Concentration
# [22] = system: Staphylococcus aureus Smith; assay: Antibacterial activity, Heart Infusion Agar Dilution Method, Staphylococcus aureus Smith; format: cell-based; conditions: pH 7.2, read-out: Minimum Inhibitory Concentration
# Procedure: as §2
# [23] = system: Klebsiella pneumoniae 8045; assay: Antibacterial activity, Heart Infusion Agar Dilution Method, Klebsiella pneumoniae 8045; format: cell-based; conditions: pH 7.2, read-out: Minimum Inhibitory Concentration
# Procedure: as §2
# [24] = system: Microorganism; assay: Antimicrobial activity as shown in table (overall statement); format: cell-based; conditions: as shown in table below
# Procedure: as §2
# [25] = system: Pseudomonas aeruginosa 145; assay: Antibacterial activity, Heart Infusion Agar Dilution Method, Pseudomonas aeruginosa 145; format: cell-based; conditions: Pseudomonas aeruginosa, 145, pH 7.2; read-out: Minimum Inhibitory Concentration
# Procedure: as §2
# [26] = system: Serratia marcescens T26; assay: Antibacterial activity, Heart Infusion Agar Dilution Method, Serratia marcescens T26; format: cell-based; conditions: pH 7.2, read-out: Minimum Inhibitory Concentration
SMILES,MIC [11],MIC [12],MIC [13],MIC [14],MIC [15],MIC [16],MIC [17],MIC [18],MIC [19],MIC [20],MIC [21],MIC [22],MIC [23],antimicrobial activity (in words) [24],also measured
CC(=O)OCC1=C(C(=O)O)N2C(=O)C(NC(=O)Cc3cccs3)C2CC1 (racemic) [(±)-1-carbacephalotin],–,–,–,–,–,–,–,–,–,–,–,–,–,–,antibacterial activity (in words) [1]: having antibacterial activity
"O=C(Cc1cccs1)NC1C(=O)N2C(C(=O)O)=CCCC12 (stereo not drawn) [Example 21, (±)-cis-2-carboxy-7-[2-(thiophene-2-yl)acetylamino]-1-azabicyclo[4,2,0]oct-2-en-8-one]",–,–,–,–,–,–,–,–,–,–,–,–,–,–,MIC [2]: 2 µg/mL; MIC [3]: 8 µg/mL; MIC [4]: 8 µg/mL; MIC [5]: 4 µg/mL; MIC [6]: 1 µg/mL; MIC [7]: 2 µg/mL; MIC [8]: 1 µg/mL; MIC [9]: 8 µg/mL; MIC [10]: 1 µg/mL
N[C@@H](C(=O)N[C@@H]1C(=O)N2C(C(=O)O)=CCC[C@H]12)c1ccccc1 [Example 26 B isomer],3.12 µg/mL,0.4 µg/mL,3.12 µg/mL,12.5 µg/mL,50 µg/mL,50 µg/mL,3.12 µg/mL,3.12 µg/mL,12.5 µg/mL,100 µg/mL,12.5 µg/mL,6.25 µg/mL,0.78 µg/mL,stronger antimicrobial activity than the more polar isomer,–
"CCN1CCN(C(=O)NC(C(=O)NC2C(=O)N3C(C(=O)O)=CCCC23)c2ccccc2)C(=O)C1=O (stereo in doubt) [Example 28, (±)-cis-7-[(R)-2-phenyl-2-(4-ethyl-2,3-dioxo-1-piperazinylcarbonylamino)acetamido]-1-azabicyclo[4,2,0]oct-2-en-8-one-2-carboxylic acid]",1.56 µg/mL,0.78 µg/mL,3.12 µg/mL,1.56 µg/mL,< 0.05 µg/mL,3.12 µg/mL,25 µg/mL,1.56 µg/mL,6.25 µg/mL,6.25 µg/mL,3.12 µg/mL,3.12 µg/mL,< 0.05 µg/mL,strong antimicrobial activity,MIC [25]: 100 µg/mL; MIC [26]: 25 µg/mL
